Measured values: BindingDB's records for PubMed 38748608 (University of Florida)

Molecular target: Neuronal acetylcholine receptor alpha9/alpha10 (Homo sapiens)
Test: Partial agonist activity at human alpha9alpha10 nAChR expressed as xenopus laevis oocytes assessed as increase in receptor desensitization measured after 120 secs by two-electrode voltage-clamp electrophysiology method

With `CC[N+]1(C)CCN(c2ccc(NC(C)=O)cc2)CC1` the EC50 was 0.64 µM.
